Measurements taken from article PMC10418725, “Trypsin from Pyloric Caeca of Asian Seabass: Purification, Characterization, and Its Use in the Hydrolysis of Acid-Soluble Collagen” (Foods, 2023).

System: purified trypsin (PT) from the pyloric caeca of Asian seabass
Assay: 4-nitroaniline release, A410; Lineweaver-Burk
Format: biochemical, Lates calcarifer
Settings: 30 °C, optimal pH (8.5) per Table 3 footnote; free enzyme; b65 text prints 0.0078 (no unit)

- Km: 78 µM
SMILES: NC(N)=NCCCC(NC(=O)c1ccccc1)C(=O)Nc1ccc([N+](=O)[O-])cc1 (stereo not shown) [BAPNA]
